TGI data for 15 compounds are collected here from PubChem BioAssay (NCI).

Among the test systems are CAKI-1 renal; SN12C renal; SF-295 CNS; U251 CNS; MALME-3M melanoma; HL-60(TB) leukemia; K-562 leukemia; TK-10 renal; CCRF-CEM leukemia; DU-145 prostate; LOX IMVI melanoma.
Holding throughout (assay): NCI-60 cell line screen, 48 h

SMILES strings stand for the structures.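 Where inhibition never reached the appropriate level, the endpoint shown equals the highest concentration tested. Otherwise, values were interpolated linearly from a five-concentration, 48-hour dose response in 96-well plates. The concentration for full growth arrest is given as TGI.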 Where a SMILES comes first, the peptide text is derived from it. The star is where a group is joined. Cbz = O=C(OCc1ccccc1)*; Boc = CC(C)(C)OC(=O)*; OSu = O=C1CCC(=O)N1O*; Bn = c1ccc(C*)cc1 A value given as a limit tells only on which side of the number the result lay.

In the case of `CCOc1ccccc1NC(=O)C1=C(C)NC(C)=C(C(=O)Nc2ccccc2OCC)C1c1ccc([N+](=O)[O-])cc1`, the TGI in the assay on CAKI-1 renal, with SN12C renal, with SF-295 CNS, in the assay on U251 CNS, in the assay with MALME-3M melanoma and in the assay with HL-60(TB) leukemia was above 100 µM throughout.

On to `CCOC(=O)c1c(-c2ccccc2)c(C)cn1C`, for which the TGI in the assay with K-562 leukemia, with SN12C renal, with TK-10 renal, in the assay on SF-295 CNS, with U251 CNS and in the assay with CCRF-CEM leukemia was above 10 µM each time. For the same compound, the TGI in the assay on DU-145 prostate was above 10 µM.

As to `COc1cc(CCc2ccc(OC(C)=O)cc2)cc(OC)c1OC`, the TGI with K-562 leukemia, in the assay on CAKI-1 renal, in the assay on SN12C renal, in the assay on TK-10 renal, in the assay with SF-295 CNS and with LOX IMVI melanoma was above 100 µM throughout. The TGI in the assay with U251 CNS, with CCRF-CEM leukemia, in the assay on MALME-3M melanoma and in the assay on HL-60(TB) leukemia was above 100 µM throughout.

In the case of `O=C1/C(=C/c2ccc(Cl)cc2)Oc2ccccc21`, the TGI in the assay on K-562 leukemia is above 100 µM; in the assay on CAKI-1 renal, 12.6 µM; in the assay with SN12C renal, above 100 µM; in the assay with TK-10 renal, 64.3 µM; with SF-295 CNS it was above 100 µM; with U251 CNS it was above 100 µM. The TGI was above 100 µM in the assay with CCRF-CEM leukemia, above 100 µM in the assay with HL-60(TB) leukemia and 40.3 µM with DU-145 prostate.

Take `CCCCCCCCCCCCC1N=C(N)N2CCCC2=C1C(=O)OC` (configuration not stated): the TGI with K-562 leukemia was 2.91 µM; with CAKI-1 renal it was 9.03 µM; in the assay with TK-10 renal, above 48.7 µM; with SF-295 CNS it was 3.39 µM; in the assay on U251 CNS it was 3.06 µM; in the assay on CCRF-CEM leukemia, 3.89 µM. In addition, the TGI in the assay on MALME-3M melanoma was 3.64 µM; in the assay with DU-145 prostate it was 21.4 µM.

With `Cc1nc(-n2nc(-c3ccccc3)cc2-c2ccccc2)sc1C(=O)/C=C/c1ccccc1`, the TGI in the assay with K-562 leukemia, in the assay on CAKI-1 renal, with SN12C renal, in the assay with TK-10 renal, with SF-295 CNS and in the assay with LOX IMVI melanoma was above 100 µM throughout. Further, the TGI in the assay on U251 CNS, with CCRF-CEM leukemia, in the assay on MALME-3M melanoma and in the assay with HL-60(TB) leukemia was above 100 µM each time.

For `C/C(CC(=O)Nc1cccc([N+](=O)[O-])c1)=N\NC(=O)C[n+]1ccccc1`, the TGI with TK-10 renal, with SF-295 CNS, with LOX IMVI melanoma, in the assay on U251 CNS, with CCRF-CEM leukemia and in the assay with MALME-3M melanoma was above 100 µM each time. In the assay on HL-60(TB) leukemia, this compound gave a TGI above 100 µM.

`CC(C)(C)OC(=O)NC(Cc1ccc(OCc2ccccc2)cc1)C(=O)NC(CCCCNC(=O)OCc1ccccc1)C(=O)NC(CCCCNC(=O)OCc1ccccc1)C(=O)ON1C(=O)CCC1=O` (configuration not stated) (Boc-Tyr(Bn)-Lys(Cbz)-Lys(Cbz)-OSu; configuration not given here): the TGI in the assay with CAKI-1 renal was above 100 µM; in the assay on TK-10 renal, above 100 µM; with SF-295 CNS, 72.1 µM; in the assay on U251 CNS, 31.8 µM; in the assay on CCRF-CEM leukemia, above 100 µM; in the assay with MALME-3M melanoma, above 100 µM. Also, the TGI in the assay with DU-145 prostate was above 100 µM.

Regarding `O=C1CNN=C(Cn2nc(-c3ccccc3)c3ccccc3c2=O)N1`, the TGI in the assay on K-562 leukemia, in the assay with SN12C renal, with TK-10 renal, with SF-295 CNS, with U251 CNS and in the assay with CCRF-CEM leukemia was above 100 µM each time. In addition, the TGI in the assay on MALME-3M melanoma and with HL-60(TB) leukemia was above 100 µM each time.

On to `NC(N)=NCCCC(NC(=O)c1c2ccccc2nc2ccccc12)C(=O)O` (configuration not stated), for which the TGI with K-562 leukemia, in the assay with CAKI-1 renal, with SN12C renal, in the assay with TK-10 renal, in the assay with SF-295 CNS and with LOX IMVI melanoma was above 100 µM each time. The TGI in the assay on U251 CNS, in the assay with CCRF-CEM leukemia and in the assay on DU-145 prostate was above 100 µM each time.

With `COc1cccc(N=NN2CCCC2)c1`, the TGI in the assay with K-562 leukemia, with CAKI-1 renal, in the assay on SN12C renal, in the assay on TK-10 renal, in the assay with SF-295 CNS and with LOX IMVI melanoma was above 100 µM each time. Also, the TGI in the assay with U251 CNS, with CCRF-CEM leukemia, with HL-60(TB) leukemia and with DU-145 prostate was above 100 µM in each case.

Regarding `O=c1[nH]c2ccc([N+](=O)[O-])cc2nc1/C(=N/Nc1ccccc1)C(O)c1ccco1` (configuration not stated), the TGI in the assay with K-562 leukemia, with SN12C renal, in the assay with TK-10 renal, with SF-295 CNS, in the assay with LOX IMVI melanoma and in the assay on U251 CNS was above 100 µM in each case. In addition, the TGI with CCRF-CEM leukemia, in the assay on MALME-3M melanoma and with HL-60(TB) leukemia was above 100 µM each time.

Take `O=C(c1ccccc1)c1cc(Cl)ccc1NCn1nnc2ccccc21`: the TGI with K-562 leukemia, in the assay on SN12C renal, with TK-10 renal, with SF-295 CNS, in the assay with LOX IMVI melanoma and with U251 CNS was above 100 µM in each case. Besides, the TGI with CCRF-CEM leukemia was above 100 µM; with HL-60(TB) leukemia, 88.8 µM.

Turning to `C[n+]1c2ccccc2c(C(=O)Nc2ccc(S(=O)(=O)Nc3ncccn3)cc2)c2ccccc21`, the TGI with K-562 leukemia, in the assay with CAKI-1 renal, with SN12C renal, in the assay with TK-10 renal, in the assay on SF-295 CNS and in the assay with LOX IMVI melanoma was above 100 µM throughout. For the same compound, the TGI with U251 CNS, in the assay on MALME-3M melanoma and in the assay on DU-145 prostate was above 100 µM each time.

As to `O=CC1=CCC2c3[nH]c4ccccc4c3CCN2C1` (configuration not stated), the TGI is above 396 µM with K-562 leukemia; above 396 µM in the assay on CAKI-1 renal; above 396 µM with SN12C renal; above 396 µM in the assay on TK-10 renal; 326 µM in the assay with SF-295 CNS; 111 µM in the assay on LOX IMVI melanoma. For the same compound, the TGI in the assay on U251 CNS was 195 µM; with CCRF-CEM leukemia, above 396 µM; in the assay on MALME-3M melanoma, above 396 µM; in the assay with HL-60(TB) leukemia, above 396 µM.
